Assays:
Assay type in all cases: physicochemical
[1] = foam half-life (seconds needed to drain 100 mL of solution from the foam); details: for Foam Half-Life: 200 mL of 500 ppm solution, seconds to drain 100 mL of solution from the foam; for foam half-life relative to anionic Comparative Examples C4 to C7 (in words): 500 ppm, versus anionic Comparative Examples C4 to C7
Method: (§1) In the following Examples and Comparative Examples, fluoroaliphatic radical-containing compounds were prepared. The surface tension of water and isopropyl alcohol solutions containing these compounds was measured using a du Nouy tensiometer. The foaming properties of these solutions were also evaluated by generating foam and measuring the foam volume and half life.
(§2) Foam was generated from 200 mL of the 500 ppm solutions used for measuring surface tension. The surfactant solutions were mixed with a Hobart mixer for 3 minutes at medium speed. Foam volume (cubic centimeters of foam) was measured in a graduated cylinder. Foam half-life was measured as the seconds needed to drain 100 mL of solution from the foam.

[2] = surface tension of aqueous solutions (du Nouy tensiometer); details: diluted from 10% solids in water/isopropyl alcohol; for Surface tension (dynes/cm) at 100 ppm: 100 ppm (0.01% solids) in deionized water; for Surface tension (dynes/cm) at 500 ppm: 500 ppm (0.05% solids) in deionized water
Method: as §1
The fluorochemical solutions obtained in Examples 1 to 6 and Comparative Examples C1 to C12 were diluted to 10% solids by dilution with a solution of 70% by volume water and 30% by volume isopropyl alcohol. Further dilutions to 0.01% solids (100 ppm), and 0.05% solids (500 ppm), were done with deionized water.

[3] = foam volume of surfactant solutions (Hobart mixer, graduated cylinder); details: for Foam Volume: 200 mL of 500 ppm solution, Hobart mixer 3 minutes at medium speed; for foam volume relative to anionic Comparative Examples C4 to C7 (in words): 500 ppm, versus anionic Comparative Examples C4 to C7
Method: as §1, §2

Row | Compound | Foam Half-Life [1] | Surface tension (dynes/cm) at 100 ppm [2] [dynes/cm] | Surface tension (dynes/cm) at 500 ppm [2] [dynes/cm] | Foam Volume [3] [cm^3] | foam half-life relative to anionic Comparative Examples C4 to C7 (in words) [1] | foam volume relative to anionic Comparative Examples C4 to C7 (in words) [3]
1 | CCN(CC(=O)O)S(=O)(=O)C(F)(F)C(F)(F)C(F)(F)C(F)(F)C(F)(F)C(F)(F)C(F)(F)C(F)(F)F [Comparative Example C4] | 6.25 min | 19.7 | 16.4 | 2600 |  | 
2 | CCN(CCC(=O)O)S(=O)(=O)C(F)(F)C(F)(F)C(F)(F)C(F)(F)C(F)(F)C(F)(F)C(F)(F)C(F)(F)F [Comparative Example C5] | 1.38 min | 24.3 | 20.7 | 1500 |  | 
3 | CCN(CCC(=O)O)S(=O)(=O)C(F)(F)C(F)(F)C(F)(F)C(F)(F)C(F)(F)C(F)(F)C(F)(F)C(F)(F)F [Comparative Example C6] | 4.08 min | 19.9 | 17.5 | 1900 |  | 
4 | CCN(CCC(=O)O)S(=O)(=O)C(F)(F)C(F)(F)C(F)(F)C(F)(F)C(F)(F)C(F)(F)C(F)(F)C(F)(F)F [Comparative Example C7] | 5 min | 19.1 | 17.2 | 2200 |  | 
5 | CCN(CCC(=O)NCCC[N+](C)(C)CC)S(=O)(=O)C(F)(F)C(F)(F)C(F)(F)C(F)(F)C(F)(F)C(F)(F)C(F)(F)C(F)(F)F [Comparative Example C8] | less than 30 sec. | 20.5 | 18.5 | 600 |  | 
6 | CCN(CCC(=O)NCCC[N+](C)(C)CCCS(=O)(=O)[O-])S(=O)(=O)C(F)(F)C(F)(F)C(F)(F)C(F)(F)C(F)(F)C(F)(F)C(F)(F)C(F)(F)F [Comparative Example C9] | 0.583 min | 20.0 | 18.3 | 900 |  | 
7 | CC[N+](C)(CC)CCNS(=O)(=O)C(F)(F)C(F)(F)C(F)(F)C(F)(F)C(F)(F)C(F)(F)C(F)(F)C(F)(F)F [Comparative Example C11] | 5.33 min | 18.1 | 17.5 | 2600 |  | 
8 | C[N+](C)(CCCNS(=O)(=O)C(F)(F)C(F)(F)C(F)(F)C(F)(F)C(F)(F)C(F)(F)F)CC(=O)[O-] [Comparative Example C12] | 5.33 min | 21.0 | 19.4 | 2400 |  | 
9 | CC(C)(CS(=O)(=O)O)NC(=O)CCNCCNS(=O)(=O)C(F)(F)C(F)(F)C(F)(F)C(F)(F)C(F)(F)C(F)(F)C(F)(F)C(F)(F)F [Example 1] | less than 30 sec. | 18.3 | 17.1 | 300 | significantly shorter foam half-life | much lower foam volume
10 | O=C(O)CCNCCNS(=O)(=O)C(F)(F)C(F)(F)C(F)(F)C(F)(F)C(F)(F)C(F)(F)C(F)(F)C(F)(F)F [Example 2] | less than 30 sec. | 16.8 | 16.5 | 300 | significantly shorter foam half-life | much lower foam volume
11 | CC(C)(CS(=O)(=O)O)NC(=O)CCN1CCN(S(=O)(=O)C(F)(F)C(F)(F)C(F)(F)C(F)(F)C(F)(F)C(F)(F)C(F)(F)C(F)(F)F)CC1 [Example 3] |  | 20.3 | 18.5 |  |  | 
12 | CC(C)(CS(=O)(=O)O)NC(=O)CCNCCC[Si](C)(C)O[Si](C)(C)CCCNS(=O)(=O)C(F)(F)C(F)(F)C(F)(F)C(F)(F)F [Example 4] |  |  | 20.1 |  |  | 
13 | CCN(CCSC(CC(=O)O)C(=O)O)S(=O)(=O)C(F)(F)C(F)(F)C(F)(F)C(F)(F)C(F)(F)C(F)(F)C(F)(F)C(F)(F)F (stereo not drawn) [Example 6] |  |  | 19.3 |  |  | 
